From US7119229B2 (priority 2001, dated 2006)

Columns and labels:
[1] = system: TA1537; test: Reverse mutation assay (Ames test), TA1537; details: Positive control group, TA1537, 50 μg/Plate
Protocol: (§1) This assay is carried out to test mutagenicity of chemical substances using histidine auxotrophic strains that are one of Salmonella Typhimurium mutants. […] When various mutagens are added to the culture medium, only revertants generated by reverse mutation survive.
(§2) Ames test was carried out using […]. […] After incubation, the number of revertant colonies was counted. 3 plates were prepared for each test and the average was calculated.

[2] = system: TA1535; details: Positive control group, TA1535, 0.5 μg/Plate
Protocol: as §1, §2

[3] = system: TA100; details: Positive control group, TA100, 0.5 μg/Plate
Protocol: as §1, §2

SMILES	Colony/Plate S-9 Mixture (+) ([1]; S-9 Mixture (+)) [Colony/Plate]	Colony/Plate S-9 Mixture (−) ([1]; S-9 Mixture (−)) [Colony/Plate]	Colony/Plate S-9 Mixture (+) ([2]; S-9 Mixture (+)) [Colony/Plate]	Colony/Plate S-9 Mixture (−) ([2]; S-9 Mixture (−)) [Colony/Plate]	Colony/Plate S-9 Mixture (+) ([3]; S-9 Mixture (+)) [Colony/Plate]	Colony/Plate S-9 Mixture (−) ([3]; S-9 Mixture (−)) [Colony/Plate]
Nc1c2ccccc2nc2ccccc12 [Compound 9-AA, 9-aminoacridine]	588	175	–	–	–	–
[N-]=[N+]=[N-] [Sodium azide, sodium azide]	–	–	444	279	616	453
